Laboratory results: patent US20070161547A1, “Modulation of survivin expression” (priority 2003, published 2007)

system: human survivin mRNA; experiment: IC50 of dsRNA for survivin mRNA, dose response by quantitative RT-PCR ("D"); format: cell-based; details: D (dose response, mRNA levels), HeLa cells; read-out: IC50
Description: Representative parameters that can be studied include, for example, translation of survivin mRNAs or survivin protein synthesis; effect on surrogate markers; or any other parameter that is indicative of potential dsRNA therapeutic effectiveness that can be conveniently measured in vitro.
(§1) For western blot analysis, cells are plated in 10 cm tissue culture dishes (Falcon, #3003) at a density of 7.5×10^5 cells/dish. For RT-PCR analysis, 96-well plates (Corning Incorporated, #3596) are plated with 1×10^4 cells/well. Lipofectin (GIBCO/Invitrogen) transfection reagent is used at a concentration of 3 ul/ml OPTIMEM reduced serum medium (Gibco/Invitrogen)/100 nM siRNA duplex. Lipofectin reagent is incubated with OPTIMEM medium for 30 minutes prior to the addition of siRNA. The desired amount of siRNA is added and mixed. Further 1:1 dilutions are performed in OPTIMEM. Cells are washed twice with 1× phosphate buffered saline and then treated with the siRNA/Lipofectin mixture in OPTIMEM. After a 4 hr incubation period, OPTIMEM medium is replaced with complete growth medium. Cells are harvested after additional 16-20 hrs for Western blot or RT-PCR analysis.
Total RNA is isolated using RNeasy® 96 kit according to recommended protocol (Qiagen). Briefly, cells are washed with 200 ul PBS after removal of growth medium. Following washing, 100 μl buffer RLT is added, plate is shaken vigorously for about 20 seconds. To each well 100 μl 70% ethanol are added and mixed by pipetting up and down three times. Samples are then applied into the wells of the RNeasy 96 plate placed in the QIAvac top base of the QIAvac 96 manifold, which is attached to a vacuum source. Vacuum is applied for 30 seconds or until transfer is complete. To each well 80 μl of DNase I incubation mix (20 mM Tris-HCl, pH 8.4, 2 mM MgCl2, 50 mM KCl and 225 Units/ml DNase I from Invitrogen) is added and incubated at room temperature for 30 minutes. Buffer RW1 (1 ml/well) is added and the vacuum is applied for 30 seconds. Buffer RPE (1 ml/well) is added to each well and vacuum is applied for 30 seconds. Washing steps with buffer RW1 and RPE1 are repeated once more. The plate is then removed from the manifold and blotted dry on paper towels. The plate is placed back in the QIAvac manifold and the vacuum is applied for 10 minutes. To elute RNA 30 μl of RNase-free water is added directly onto the membrane of each well, incubated for 1 minutes and vacuum is applied for 30 seconds. In order to maximize the recovery of total RNA the elution step is repeated with additional 30 μl/well RNase-free water.
Quantitation of survivin and GAPDH mRNA levels is determined by real-time quantitative RT-PCR using the ABI PRISM® 7900 Sequence Detection System (Applied Biosystems). RT-PCR reactions are carried out by adding 15 ul of TaqMan One Step PCR Master Mix (Applied Biosystems, #4309169) reagents (containing 100 nM each of forward primer and reverse primer, and 200 nM probe) to 96-well plates with 10 μl total RNA. For human survivin, the forward PCR primer is: 5′[…]3′ (SEQ ID NO: 186), and the reverse primer is: 5′[…]3′ (SEQ ID NO: 187). The survivin TaqMan® probe used is 5′(FAM)[…]3′ (SEQ ID NO: 188) (Biosearch Technologies, Inc.). This primer-probe set, designed to SEQ ID No 14 was used for all experiments in Examples 15 to the end. For human GAPDH, TaqMan GAPDH Control Reagent Kit is used (Applied Biosystems, #402869). The percentage inhibition for each samples are calculated by comparing the survivin/GAPDH mRNA ratio for the sample to survivin/GAPDH mRNA ratio for the untreated control. The IC50 is derived from the non-linear regression analysis of the percentage inhibition data using GraphPad Prism software (GraphPad Software).
The constructs tested comprise the antisense strand in the 5′-3′ orientation, and the sense strand in the 5′ to 3′ orientation, In Table 15, “D” is dose response (mRNA levels) and “W” is Western blot. […]

Point of comparison: “339056_339086 (antisense UAAGGAACCUGCAGCUCAGA; sense UCUGAGCUGCAGGUUCCUUA; siRNA; unmodified RNA)”, IC50 1.72 nM. Against it:
- 339045_339075 (antisense AUCCAUGGCAGCCAGCUGCU; sense AGCAGCUGGCUGCCAUGGAU; siRNA; unmodified RNA) — 1.9-fold higher, 3.3 nM
- 339052_339082 (antisense GCAAAAGGGACACUGCCUUC; sense GAAGGCAGUGUCCCUUUUGC; siRNA; unmodified RNA) — within 1.5-fold, 2.41 nM
- 339058_339088 (antisense AACAAAAUAAGAAAGCCAUG; sense CAUGGCUUUCUUAUUUUGUU; siRNA; unmodified RNA) — 1.7-fold higher, 2.96 nM
- 339060_339090 (antisense AGUUUGUGCUAUUCUGUGAA; sense UUCACAGAAUAGCACAAACU; siRNA; unmodified RNA) — 2-fold higher, 3.38 nM

same assay, conditions: D (dose response, mRNA levels), U-87 MG cells; read-out: IC50

Point of comparison: “339052_339082 (antisense GCAAAAGGGACACUGCCUUC; sense GAAGGCAGUGUCCCUUUUGC; siRNA; unmodified RNA)”, IC50 1.15 nM. Against it:
- 339045_339075 (antisense AUCCAUGGCAGCCAGCUGCU; sense AGCAGCUGGCUGCCAUGGAU; siRNA; unmodified RNA) — 1.7-fold lower, 0.68 nM
- 339048_339078 (antisense AUUUGAAAAUGUUGAUCUCC; sense GGAGAUCAACAUUUUCAAAU; siRNA; unmodified RNA) — 3.4-fold lower, 0.34 nM
- 339056_339086 (antisense UAAGGAACCUGCAGCUCAGA; sense UCUGAGCUGCAGGUUCCUUA; siRNA; unmodified RNA) — 2.3-fold lower, 0.51 nM

system: survivin protein; experiment: IC50 of dsRNA for survivin protein, quantitative Western blot ("W"); format: cell-based, human; details: W (Western blot), HeLa cells
Description: Western blot analysis (immunoblot analysis) is carried out using standard methods. Cells are harvested 16-20 hours after oligonucleotide treatment, washed once with PBS, suspended in Laemmli buffer (100 μl/well), boiled for 5 minutes and loaded on a 16% SDS-PAGE gel. Gels are run for 1.5 hours at 150 V, and transferred to membrane for western blotting. Appropriate primary antibody directed to survivin is used, with a radiolabelled or fluorescently labeled secondary antibody directed against the primary antibody species. Bands are visualized using a PHOSPHORIMAGER™ (Molecular Dynamics, Sunnyvale, Calif.).
as §1
At the end of the incubation period culture medium is removed and cells are washed twice with PBS. Cells are lysed in RIPA buffer (20 mM Tris-HCl, pH 7.4, 5 mM EDTA, 50 mM NaCl, 10 mM Sodium Pyrophosphate, 50 mM Sodium Fluoride, and 1% Nonidet P40) plus Complete™ Mini protease inhibitor tablets (Roche, #1836153) and 1 mM Sodium orthovanadate (Sigma) by directly adding buffer to the plate. Lysates are collected by scrapping, transferred to microfuge tubes and cleared from the cellular debris by centrifugation at 14,000 rpm for 30 minutes at 4° C. Protein concentrations are determined using BCA protein assay yeagents (Pierce). Total cellular protein is subjected to SDS-PAGE and transferred onto Immobilon-P membranes (Millipore, #IPVHO91). Membranes are probed with primary antibodies to survivin (R&D Systems, #AF886) and to β-Actin (Sigma, #A5441). Horseradish peroxidase linked Anti-rabbit Ig, and anti-mouse Ig, antibodies (Pharmacia) are used as secondary antibodies. Antigen-antibody complexes are visualized by incubation of membrane in SuperSigmal West Pico chemiluminescence reagents (Pierce) for 5 minutes followed by capturing of the chemiluminescence using Fluor-S imager (Biorad) equipped with the cool CCD camera. The protein bands of interest for each sample are quantified using Quantity One software (Biorad). The percentage inhibition for each samples are calculated by comparing the survivin/Actin protein ratio for the sample to survivin/Actin protein ratio for the untreated control. The IC50 is derived from the non-linear regression analysis of the percentage inhibition data using GraphPad Prism software (GraphPad Software).
The constructs tested comprise the antisense strand in the 5′-3′ orientation, and the sense strand in the 5′ to 3′ orientation, In Table 15, “D” is dose response (mRNA levels) and “W” is Western blot. All internucleoside linkages are phosphodiester unless otherwise noted by a lowercase “s” indicating a phosphorothioate linkage.

Point of comparison: “339060_339090 (antisense AGUUUGUGCUAUUCUGUGAA; sense UUCACAGAAUAGCACAAACU; siRNA; unmodified RNA)”, IC50 4.43 nM. Against it:
- 339045_339075 (antisense AUCCAUGGCAGCCAGCUGCU; sense AGCAGCUGGCUGCCAUGGAU; siRNA; unmodified RNA) — within 1.5-fold, 5.5 nM
- 339048_339078 (antisense AUUUGAAAAUGUUGAUCUCC; sense GGAGAUCAACAUUUUCAAAU; siRNA; unmodified RNA) — within 1.5-fold, 3.97 nM
- 339052_339082 (antisense GCAAAAGGGACACUGCCUUC; sense GAAGGCAGUGUCCCUUUUGC; siRNA; unmodified RNA) — higher, ≥ 100 nM
- 339056_339086 (antisense UAAGGAACCUGCAGCUCAGA; sense UCUGAGCUGCAGGUUCCUUA; siRNA; unmodified RNA) — 1.7-fold higher, 7.5 nM
- 339058_339088 (antisense AACAAAAUAAGAAAGCCAUG; sense CAUGGCUUUCUUAUUUUGUU; siRNA; unmodified RNA) — 1.6-fold higher, 7.23 nM
